Results from patent US5565433A, “Sulfated β-glycolipid derivatives as cell adhesion inhibitors” (Bristol-Myers Squibb Company, priority 1996, dated 1996).

Columns and labels:
P-selectin [1] = target: T1, P-selectin (Homo sapiens, UniProt P16109); test: P-Selectin Adhesion Receptor Binding: cell-free ELISA, inhibition of P-selectin binding to immobilized sulfatides; settings: immobilized sulfatide, pH 8.0
T1 construct: consists of the human lectin domain, the EGF domain, and two complement repeats of the human selectins; made in house
T1 sequence (P16109 with tags, fused parts or gaps limits assumed): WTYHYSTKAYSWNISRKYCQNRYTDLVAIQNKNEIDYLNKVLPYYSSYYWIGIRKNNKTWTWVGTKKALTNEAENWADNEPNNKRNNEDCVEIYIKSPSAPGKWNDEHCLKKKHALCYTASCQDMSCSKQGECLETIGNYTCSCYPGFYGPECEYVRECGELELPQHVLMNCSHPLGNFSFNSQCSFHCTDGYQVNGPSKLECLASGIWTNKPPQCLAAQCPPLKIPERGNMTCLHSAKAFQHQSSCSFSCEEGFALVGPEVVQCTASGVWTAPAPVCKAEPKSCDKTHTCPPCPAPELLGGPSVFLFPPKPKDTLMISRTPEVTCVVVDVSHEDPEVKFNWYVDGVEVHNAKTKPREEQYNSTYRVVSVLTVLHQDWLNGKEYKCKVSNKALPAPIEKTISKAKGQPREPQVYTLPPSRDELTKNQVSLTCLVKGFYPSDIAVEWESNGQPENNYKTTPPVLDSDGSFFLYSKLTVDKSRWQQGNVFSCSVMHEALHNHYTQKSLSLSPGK
Description: 1. P-Selectin Adhesion Receptor Binding
P-selectin (GMP140, granule membrane protein-140, PADGEM, or CD62) is a calcium-dependent transmembrane protein found in alpha granules of endothelial cells and platelets. It is an inducible selectin produced on activated endothelium and platelets which recognize alpha(2-3)sialylated and alpha(1-3)fucosylated lactosaminoglycans which include the sequence, Lewis x (Zhou et al., J. Cell. Biol., (1991) 115 (2): 557-564) and sulfatides (3-sulfated galactosyl ceramides, Aruffo, et al., Cell (1991) 67: 35-44). P-selectin may be responsible for the initial adhesion events between endothelium and neutrophils as evidenced by leukocyte rolling induced by P-selectin in flow cells (Lawrence, M., and T. Springer, Cell (1991) 65: 859-873).
Based on the availability of soluble forms of P-selectin prepared as described by Aruffo, A., et al., Cell, 67, 35-44 (1991), a binding ELISA based assay modified from Foxall, et al., J., Cell Biol., 117, 895-902 (1992) was developed to measure inhibitors of P-selectin binding to immobilized sulfatides. Such inhibitors were tested in the assay described below.
0.1 ml of sulfatide (SIGMA) or lysosulfatide (SIGMA) each at 1 μg/ml in MeOH were added to the wells of a 96-well ELISA plate (ProBind, Falcon) and allowed to dry overnight at room temperature. The next day the antigen coated plates were blocked for 1.5 hours at room temperature with 5% BSA (ICN) in buffer containing 20mM Hepes and 0.15 M NaCl, pH 8.0. Wild type P-selectin and mutants thereof were first mixed with HRP-conjugated goat anti-human IgG (Fisher Scientific), serially diluted and then incubated for 30 minutes at 37° C. in buffer containing 20 mM Hepes, 0.15 M NaCl, 1% BSA and 0.8 mM CaCl2, pH 8.0 prior to addition to the BSA blocked plates. Following the 30 minute preincubation, the fusion protein-HRP conjugate immunocomplexes were incubated on the blocked antigen coated plates for 45 minutes at 37° C. in the presence or absence of the test compounds and then washed to remove any unbound proteins. Bound complexes were detected by addition of substrate buffer (95 mM NaOAc.3H2 O, 5 mM citric acid monohydrate, 1.4 mM urea/H2O2) containing 3, 3', 5, 5' Tetramethylbenzidine (SIGMA). Reactions were stopped by the addition of 3N sulfuric acid and the absorbance read on an ELISA reader at dual wavelengths 450 and 630 nm. The efficacy of these compounds was compared to that of sulfatide (positive control) or to lysosulfatide (negative control). The data is obtained as percent inhibition of specific binding [formula] and a plot of dose vs. percent inhibition of Rg binding is generated in which IC50 (μM) is calculated and reported as cell free data in Table 1.

[2] = system: Reverse Passive Arthus Reaction in Rats; test: Reverse Passive Arthus Reaction in Rats, vascular permeability (VP); format: in vivo; settings: rat, IV, % inhibition at 3 mg single dose, 4 hours
Description: (§1) 3. Reverse Passive Arthus Reaction in Rats
(§2) The reverse passive Arthus reaction in rats is a modification of the method by Mulligan et al., as described in J. Clin. Invest., (1991 ) 88:1396-1406. This is an experimental model in which the interaction of antigen-antibody complexes and complement leads to a severe vasculitis that is associated with edema, induration, erythema and hemorrhage. The interaction between the antigen-antibody complexes and complement leads to a localized influx of neutrophils. These neutrophils release a variety of mediators that are associated with tissue damage and vascular permeability. The localized inflammatory reaction is measured using different techniques i.e., vascular permeability and neutrophil influx which is evaluated both biochemically and microscopically.
(§3) Male Sprague Dawley specific pathogen-free rats with jugular vein cannulae (280-320 g, Hill Top Labs, Pa.) are used in these studies. Animals are acclimated for at least 1 day and individually housed in stainless steel cages. The dorsal region of the rats is closely clipped 2 days prior to the experiments and divided into 4 sites on each side of the midline. Prior to all injections the rats are sedated with 0.4 ml per 300 gm rat of ketamine/rompun [1000 mg (10 ml) of ketamine HCL is mixed with 40 mg (2.0 ml) Rompun] administered IP and or inhalation anesthesia with metafane (methoxyflurane).
(§4) Bovin Serum Albumin (BSA) and rabbit polyclonal IgG rich in anti-BSA are purchased from Sigma Chemical Co. (St. Louis, Mo.). Radiolabelled ^125 I-BSA (spAct 1-5 μCi/μg) is purchased from Dupont NEN (Boston, Mass.).
(§5) Each rat is administered intradermal (ID) injection of (0.4 mg, 0.6 mg and 0.8 mg) anti-BSA in a volume of 100 μl per injection in normal saline. The ID injections are randomized near the mid dorsal region on both sides of the back bone. Immediately after the ID injections of the anti-BSA, the rats are administered intravenous (IV) injections of BSA (10 mg in 1.0 ml) in normal saline containing ^125 I labeled BSA (1 μCi/ml BSA or 5.0 μCi/kg body wt) for quantification of dermal vascular injury. Anti-inflammatory agents such as inhibitors of adhesion molecules of the present invention are administered IV at a single dose of 3 mg immediately after BSA. Four (4) hours after the IV injection of BSA, the rats are anesthetized with metafane and 2 to 3 ml of blood is withdrawn via the cannula into an anticoagulant containing (EDTA or Heparin) tube and plasma separated and saved for neutrophil and albumin quantitation. The rats are killed and the skin surrounding the injection site (15 mm diameter) is punched out and weighed. The skin samples and a fixed volume of plasma (0.1 to 1.0 ml) is analyzed in a gamma-counter for ^125 I content. Skin samples from the contralateral side are processed and analyzed for myeloperoxidase activity (MPO) as a measure of neutrophil accumulation. As needed, samples are also processed for histological evaluation of the reacted sites.
Vascular Permeability (VP)
The calculation of the plasma protein exudation into skin is made by determining the radioactivity in the tissue and relating this to the level of radioactive albumin in the blood at the time of sacrifice. […] [formula]
Percent inhibition of the test compound at 3 mg was determined as follows: [formula] Myeloperoxidase (MPO)

[3] = system: Reverse Passive Arthus Reaction in Rats; test: Reverse Passive Arthus Reaction in Rats, myeloperoxidase (MPO); format: in vivo; settings: rat, IV, % inhibition at 3 mg single dose, 4 hours
Description: as §1, §2, §3, §4, §5
MPO is located in the azurephil granules of polymorphonuclear leukocytes (PMN). Because of its abundance in these cells (5% dry weight), this enzyme is used as a marker for tissue neutrophil content. For tissue MPO content, the method of Bradley, et al., was used as described in J. Invest. […] Change in absorbance at 450 nm was measured at room temperature using a Vmax kinetic plate reader (Molecular Devices, Pale Alto, Calif., USA). Percent inhibition of the test compound at 3 mg dose was determined as follows: [formula] […]

P-selectin [4] = settings: Skinner et al.; cited from earlier work
P-selectin [5] = target: T1, P-selectin; test: HL-60 Cell Binding to P-selectin Rg; format: cell-based; settings: HL-60 cells binding to P-selectin Rg coated wells
Experimental: 2. HL-60 Cell Binding to P- and E-Selectin RG
Receptor globulin (Rg) Construction
The chimeric P-and E-selectin receptor globulin (Rg) consists of the human lectin domain, the EGF domain, and two complement repeats of the human selectins fused to the hinge, CH1 and CH2 domains of human IgG1. These proteins were prepared as described by Aruffo, et al., Cell (1991) 67: 35-44; Walz, et al., Science (1990) 250, 1132-1135.
Cell binding assay for Rg
The HL-60 cell line, obtained from the American Type Culture Collection, ATCC No. CCL240, was employed to investigate P-selectin Rg binding. Assays were done in 96-well tissue culture dishes. The wells were first coated with 0.5 ug goat anti-human Fc antiserum overnight, and nonspecific binding sites were blocked by incubation of the wells with 1% nonfat dry milk in phosphate buffered saline (PBS containing 0.9 mM CaCl2 and 0.8 mM MgSO4) for 30 minutes. The Rg was then bound to the anti Fc-coated wells by incubating 50 ng in 50 ul of PBS for two hours. Cells, washed twice and resuspended in PBS to remove traces of medium components, were labeled with 10 uM calcein acetoxy methyl ester for 30 minutes at 3×10^7 cells per ml at room temperature. Serum-containing medium (RPMI with 20% fetal calf serum) was added, and the cells washed, followed by resuspension in PBS and a further spin. The labeled cells, resuspended in PBS, were added to twice washed Rg-containing wells at 200,000 per well. Following a 30 minute incubation with slow shaking, the wells were aspirated and washed three times with PBS to remove unbound cells. To certain wells were added known numbers of cells for determination of a standard curve of fluorescent units per cell. The fluorescence on the plate was quantitated using a fluorescent plate reader. Following subtraction of a blank representing the binding of cells to non-Rg containing wells (<5000 cells), the specific binding to P- or E- selectin was determined.
Inhibitors of cell binding
Test compounds were prepared by dissolution to a final concentration of 20 mg/ml in dimethyl sulfoxide (DMSO), diluted in PBS to 2 mg/ml, and briefly sonicated prior to use. The Rg coated wells were preincubated at room temperature for 15 minutes with the inhibitor, and 200,000 cells were added to yield the final indicated inhibitor concentration in 160 ul of PBS. The data is obtained as percent inhibition of specific binding: [formula] and a plot of dose vs. percent inhibition of Rg binding is generated in which IC50 (μM) is calculated and reported in Table 1.

P-selectin [6] = settings: Larsen et al.; Erbe et al.; Aruffo et al.; cited from earlier work

For `CCCCCCCCCCCCC/C=C/[C@@H](OC(=O)c1ccccc1)[C@H](CO[C@@H]1O[C@H](COS(=O)(=O)O)[C@@H](OS(=O)(=O)O)[C@H](OC(=O)c2ccccc2)[C@H]1OC(=O)c1ccccc1)NC(=O)CCCCCCCCCCCCCCC` [Example 3, (2S,3R,4E)-2-Hexadecanoylamino-3-benzoyloxy-1-(2,3-di-O-benzoyl-4,6-di-O-(sodiumoxysulfonyl)-β-D-glucopyranosyloxy)-4-octadecene], the IC50 (P-selectin [1]) was 200 nM, the “RPA VP % Inhib.” value [2] was 34% and the “RPA MPO % Inhib.” value [3] was 14%.
In the case of dextran sulfate, the “inhibition of P-selectin mediated adhesion (in words)” value (P-selectin [4]) is listed as “inhibit P-selectin mediated adhesion”.
`CCCCCCCCCCCCC/C=C/[C@@H](OC(=O)c1ccccc1)[C@H](CO[C@@H]1O[C@H](COS(=O)(=O)O)[C@H](OC(C)=O)[C@H](OS(=O)(=O)O)[C@H]1OC(=O)c1ccccc1)NC(=O)CCCCCCCCCCCCCCC` [Example 8, (2S,3R,4E)-3-Benzoyloxy-2-hexadecanoylamino-1-[2-O-benzoyl-4-O-acetyl-3,6-di-O-(sodiumoxysulfonyl)-β-D-galactopyranosyloxy]-4-octadecene] gave an IC50 (P-selectin [1]) of 1300 nM and an IC50 (P-selectin [5]) of 15000 nM.
In the case of `CCCCCCCCCCCCC/C=C/[C@@H](OC(=O)c1ccccc1)[C@H](CO[C@@H]1O[C@H](COS(=O)(=O)O)[C@H](OS(=O)(=O)O)[C@H](OC(=O)c2ccccc2)[C@H]1OC(=O)c1ccccc1)NC(=O)CCCCCCCCCCCCCCC` [Example 1, (2S,3R,4E)-3-Benzoyloxy-2-hexadecanoylamino-1-[2,3-di-O-benzoyl-4,6-di-O-(sodiumoxysulfonyl)-β-D-galactopyranosyloxy]-4-octadecene], the IC50 (P-selectin [1]) is reported as 100 nM, the “RPA VP % Inhib.” value [2] is reported as 42% and the “RPA MPO % Inhib.” value [3] is reported as 24%.
In the case of `CCCCCCCCCCCCCCCCCCCCCCCC(=O)N[C@@H](CO[C@@H]1O[C@H](COS(=O)(=O)O)[C@H](OS(=O)(=O)O)[C@H](OC(=O)c2ccccc2)[C@H]1OC(=O)c1ccccc1)[C@@H](CCCCCCCCCCCCCCC)OC(=O)c1ccccc1` [Example 19, (2S,3R)-3-Benzoyloxy-1-[2,3-di-O-benzoyl-4,6-di-O-(sodiumoxysulfonyl)-β-D-galactopyranosyl-oxy]-2-tetracosanoylaminooctadecane], the IC50 (P-selectin [1]) is reported as 600 to 4000 nM and the IC50 (P-selectin [5]) is reported as 45000 nM.
Work on `CCCCCC/C=C/[C@@H](OC(=O)c1ccccc1)[C@H](CO[C@@H]1O[C@H](COS(=O)(=O)O)[C@H](O)[C@H](O)[C@H]1OS(=O)(=O)O)NC(=O)CCCCCCCCCCCCCCC` [Example 25, (2S,3R,4E)-3-Benzoyloxy-2-hexadecanoylamino-1-[2,6-di-O-(sodiumoxysulfonyl)-β-D-galactopyranosyloxy]-4-undecene] yielded an IC50 (P-selectin [1]) of 2700 nM.
For heparin, the “inhibition of P-selectin mediated adhesion (in words)” value (P-selectin [4]) is listed as “inhibit P-selectin mediated adhesion”.
For fucoidan, the “inhibition of P-selectin mediated adhesion (in words)” value (P-selectin [4]) is listed as “inhibit P-selectin mediated adhesion”.
In the case of `CCCCCCCCCCCCC/C=C/[C@@H](OC(=O)c1ccccc1)[C@H](CO[C@@H]1O[C@@H]2COC(c3ccccc3)O[C@@H]2[C@H](OS(=O)(=O)O)[C@H]1OS(=O)(=O)O)NC(=O)CCCCCCCCCCCCCCC` (stereo partly drawn) [Example 10, (2S,3R,4E)-3-Benzoyloxy-2-hexadecanoylamino-1-[2,3-di-O-(sodiumoxysulfonyl)-4,6-O-benzylidene-β-D-galactopyranosyloxy)-4-octadecene], the “RPA VP % Inhib.” value [2] is reported as 0% and the “RPA MPO % Inhib.” value [3] is reported as 56%.
For sialyl-Le^x, the “P-selectin binding (in words)” value (P-selectin [6]) is listed as “has been shown to bind”.
